# Measured values published in patent US6048854A, “2,3-diaminopropionic acid derivative” (Sumitomo Pharmaceuticals Company, Limited, priority 1993, dated 2000).
# Tested on: platelet aggregation
# Experiment: Platelet aggregation inhibitory activity (ADP-induced, human platelet rich plasma)
# Format: cell-based
# Details: Homo sapiens, Table 2, same manner as Example 17
# Method: The blood was collected from the elbow vein of a normal volunteer with mixing thereof with 1/10 volume of 3.8% sodium citrate, and the blood was centrifuged at 1000 rpm (150 g) for 10 minutes to give the supernatant as platelet rich plasma (PRP). To PRP (200 μl) was added a test compound solution (2 μl), and the mixture was incubated with stirring at 1000 rpm at 37° C. for two minutes, and thereto was added a platelet aggregator, adenosine diphosphate (ADP, 22 μl) at a final concentration of 3 μg/ml. The platelet aggregation activity was determined by nephelometric analysis using a Hematracer (manufactured by Niko Bioscience, Ltd.). The test results of platelet aggregation inhibitory activity are expressed by IC50, which is a concentration of the test compound being required to inhibit the platelet aggregation reaction by 50%.
# The compounds of Examples 18 to 70 were tested in the same manner as in Example 17.
# The compounds of Examples 72 to 116 were tested in the same manner as in Example 17.
row,IC50,SMILES
1,170 nM,"O=C(CCC1CCNCC1)NCCC(=O)NC[C@H](NS(=O)(=O)c1ccc(C(F)(F)F)cc1)C(=O)O [Example 29, (2S)-3-(3-(3-(4-piperidyl)propanoylamino)propanoylamino)-2-(4-trifluoromethyl)benzenesulfonylaminopropanoic Acid]"
2,22 nM,"Cc1cccc(S(=O)(=O)N[C@@H](CNC(=O)CCNC(=O)CCC2CCNCC2)C(=O)O)c1 [Example 25, (2S)-2-(3-methyl)benzenesulfonylamino-3-(3-(3-(4-piperidyl)propanoylamino)propanoylamino)propanoic Acid]"
3,170 nM,"CCCc1ccc(S(=O)(=O)N[C@@H](CNC(=O)CCNC(=O)CCC2CCNCC2)C(=O)O)cc1 [Example 49, (2S)-3-(3-(3-(4-piperidyl)propanoylamino)propanoylamino)-2-(4-propyl)benzenesulfonylaminopropanoic Acid]"
4,48 nM,"O=C(CCC1CCNCC1)NCCC(=O)NC[C@H](NS(=O)(=O)c1ccc(Br)cc1)C(=O)O [Example 37, (2S)-2-(4-bromo)benzenesulfonylamino-3-(3-(3-(4-piperidyl)propanoylamino)propanoylamino)propanoic Acid]"
5,35 nM,"CCc1ccc(S(=O)(=O)N[C@@H](CNC(=O)CCNC(=O)CCC2CCNCC2)C(=O)O)cc1 [Example 38, (2S)-2-(4-ethyl)benzenesulfonylamino-3-(3-(3-(4-piperidyl)propanoylamino)propanoylamino)propanoic Acid]"
6,29 nM,"Cc1ccc(S(=O)(=O)N[C@@H](CNC(=O)CCNC(=O)CCC2CCNCC2)C(=O)O)cc1 [Example 26, (2S)-2-(4-methyl)benzenesulfonylamino-3-(3-(3-(4-piperidyl)propanoylamino)propanoylamino)propanoic Acid]"
7,3 nM,"COc1ccc(S(=O)(=O)N[C@@H](CNC(=O)CCNC(=O)CCC2CCNCC2)C(=O)O)cc1 [Example 40, (2S)-2-(4-methoxy)benzenesulfonylamino-3-(3-(3-(4-piperidyl)propanoylamino)propanoylamino)propanoic Acid]"
8,260 nM,"O=C(CCC1CCNCC1)NCCC(=O)NC[C@H](NS(=O)(=O)c1ccc2ccccc2c1)C(=O)O [Example 43, (2S)-2-(2-naphthalene)sulfonylamino-3-(3-(3-(4-piperidyl)propanoylamino)propanoylamino)propanoic Acid]"
9,142 nM,"O=C(CCC1CCNCC1)NCCC(=O)NC[C@H](NS(=O)(=O)c1cccc([N+](=O)[O-])c1)C(=O)O [Example 31, (2S)-2-(3-nitro)benzenesulfonylamino-3-(3-(3-(4-piperidyl)propanoylamino)propanoylamino)propanoic Acid]"
10,90 nM,"CCCCS(=O)(=O)N[C@@H](CNC(=O)CCCOc1ccc(C(=N)N)cc1)C(=O)O [Example 56, (2S)-3-(4-(4-amidinophenoxy)butanoylamino)-2-butanesulfonylaminopropanoic Acid]"
11,233 nM,"CN(C)c1cccc2c(S(=O)(=O)N[C@@H](CNC(=O)CCNC(=O)CCC3CCNCC3)C(=O)O)cccc12 [Example 42, (2S)-2-(5-dimethylamino-1-naphthalene)sulfonylamino-3-(3-(3-(4-piperidyl)propanoylamino)propanoylamino)propanoic Acid]"
12,25 nM,"O=C(CCC1CCNCC1)NCCC(=O)NC[C@H](NS(=O)(=O)c1ccc(F)cc1)C(=O)O [Example 35, (2S)-2-(4-fluoro)benzenesulfonylamino-3-(3-(3-(4-piperidyl)propanoylamino)propanoylamino)propanoic Acid]"
13,126 nM,"O=C(CCC1CCNCC1)NCCC(=O)NC[C@H](NS(=O)(=O)c1c(F)c(F)c(F)c(F)c1F)C(=O)O [Example 34, (2S)-2-(2,3,4,5,6-pentafluoro)benzenesulfonylamino-3-(3-(3-(4-piperidyl)propanoylamino)propanoylamino)propanoic Acid]"
14,263 nM,"CCS(=O)(=O)N[C@@H](CNC(=O)CCNC(=O)CCC1CCNCC1)C(=O)O [Example 44, (2S)-2-ethanesulfonylamino-3-(3-(3-(4-piperidyl)propanoylamino)propanoylamino)propanoic Acid]"
15,238 nM,"O=C(CCC1CCNCC1)NCCC(=O)NC[C@H](NS(=O)(=O)c1ccc(OC(F)(F)F)cc1)C(=O)O [Example 47, (2S)-3-(3-(3-(4-piperidyl)propanoylamino)propanoylamino)-2-(4-trifluoromethoxy)benzenesulfonylaminopropanoic Acid]"
16,15 nM,"Cc1cc(C)c(S(=O)(=O)N[C@@H](CNC(=O)CCNC(=O)CCC2CCNCC2)C(=O)O)c(C)c1 [Example 33, (2S)-3-(3-(3-(4-piperidyl)propanoylamino)propanoylamino)-2-(2,4,6-trimethyl)benzenesulfonylaminopropanoic Acid]"

# Same assay, conditions: Homo sapiens, Table 3, same manner as Example 17
row,IC50,SMILES
1,29 nM,"CNC(=N)c1ccc(OCCCC(=O)NC[C@H](NS(=O)(=O)c2ccccc2)C(=O)O)cc1 [Example 107, (2S)-2-benzenesulfonylamino-3-(4-(4-(N-methylamidino)phenoxy)butanoylamino)propanoic Acid]"
2,26 nM,"CCc1ccc(S(=O)(=O)N[C@@H](CNC(=O)CCCCc2ccc(C(=N)N)cc2)C(=O)O)cc1 [Example 89, (2S)-3-(5-(4-amidinophenyl)pentanoylamino)-2-(4-ethyl)benzenesulfonylaminopropanoic Acid]"
3,41 nM,"N=C1NCCc2cc(OCCCC(=O)NC[C@H](NS(=O)(=O)c3ccccc3)C(=O)O)ccc21 [Example 111, (2S)-2-benzenesulfonylamino-3-(4-(6-(1-imino-1,2,3,4-tetrahydroisoquinolyl)oxy)butanoylamino)propanoic Acid]"
4,116 nM,"N=C(NCc1ccccc1)c1ccc(C(=O)NCCC(=O)NC[C@H](NS(=O)(=O)c2ccccc2)C(=O)O)cc1 [Example 106, (2S)-2-benzenesulfonylamino-3-(3-(4-(N-benzylamidino)benzoylamino)propanoylamino)propanoic Acid]"
5,48 nM,"CC(C)(C)C(=O)OCOC(=O)[C@H](CNC(=O)CCCOc1ccc(C(=N)N)cc1)NS(=O)(=O)c1ccccc1 [Example 113, (2S)-3-(4-(4-amidinophenoxy)butanoylamino)-2-benzenesulfonylaminopropanoicAcid Pivaloyloxymethyl Ester]"
6,51 nM,"CCNC(=N)c1ccc(OCCCC(=O)NC[C@H](NS(=O)(=O)c2ccccc2)C(=O)O)cc1 [Example 108, (2S)-2-benzenesulfonylamino-3-(4-(4-(N-ethylamidino)phenoxy)butanoylamino)propanoic Acid]"
7,103 nM,"N=C(NN)c1ccc(C(=O)NCCC(=O)NC[C@H](NS(=O)(=O)c2ccccc2)C(=O)O)cc1 [Example 101, (2S)-2-benzenesulfonylamino-3-(3-(4-hydrazinoiminobenzoylamino)propanoylamino)propanoic Acid]"
8,28 nM,"N=C(N)c1ccc(C(=O)NCCC(=O)NC[C@H](NS(=O)(=O)c2ccccc2N)C(=O)O)cc1 [Example 81, (2S)-3-(3-(4-amidinobenzoylamino)propanoylamino)-2-(2-amino)benzenesulfonylaminopropanoic Acid]"
9,31 nM,"N=C(N)c1ccc(C(=O)CCCCC(=O)NC[C@H](NS(=O)(=O)c2ccccc2)C(=O)O)cc1 [Example 94, (2S)-3-(5-(4-amidinobenzoyl)pentanoylamino)-2-benzenesulfonylaminopropanoic Acid]"
10,57 nM,"CN(CCC(=O)NC[C@H](NS(=O)(=O)c1ccccc1)C(=O)O)C(=O)c1ccc(C(=N)N)cc1 [Example 96, (2S)-3-(3-(4-amidinobenzoylmethylamino)propanoylamino)-2-benzensulfonylaminopropanoic Acid]"
11,35 nM,"CC(=O)NNC(=N)c1ccc(C(=O)NCCC(=O)NC[C@H](NS(=O)(=O)c2ccccc2)C(=O)O)cc1 [Example 102, (2S)-2-benzenesulfonylamino-3-(3-(4-acetylhydrazinoiminobenzoylamino)propanoylamino)propanoic Acid]"
12,35 nM,"NC(=O)c1ccc(C(=O)NCCC(=O)NC[C@H](NS(=O)(=O)c2ccccc2N)C(=O)O)cc1 [Example 114, (2S)-2-(2-amino)benzenesulfonylamino-3-(3-(4-carbamoylbenzoylamino)propanoylamino)propanoic Acid]"

# Same assay, conditions: Table 1, human PRP, ADP 3 μg/ml, 37° C.
row,IC50,SMILES
1,583 nM,"CCCCS(=O)(=O)N[C@@H](CNC(=O)CNC(=O)CCCCCC1CCNCC1)C(=O)O [Example 8, (2S)-2-butanesulfonylamino-3-(N-(6-(4-piperidyl)hexanoyl)glycylamino)propanoic Acid]"
2,162 nM,"CCCCS(=O)(=O)N[C@@H](CNC(=O)CCNC(=O)CCC1CCNCC1)C(=O)O [Example 3, (2S)-2-butanesulfonylamino-3-(3-(3-(4-piperidyl)propanoylamino)propanoylamino)propanoic Acid]"
3,1220 nM,"CCCCS(=O)(=O)N[C@@H](CNC(=O)CNC(=O)[C@H](C)N(C)C(=O)CCC1CCNCC1)C(=O)O [Example 7, (2S)-2-butanesulfonylamino-3-(N-(3-(4-piperidyl)propanoyl)-N-methyl-L-alanylglycylamino)propanoic Acid]"
4,5240 nM,"CCCCS(=O)(=O)N[C@@H](CNC(=O)CNC(=O)[C@H](C)NC(=O)CCC1CCNCC1)C(=O)O [Example 15, (2S)-2-butanesulfonylamino-3-(N-(3-(4-piperidyl)propanoyl)-L-alanylglycylamino)propanoic Acid]"
5,1810 nM,"CCCCS(=O)(=O)N[C@@H](CNC(=O)CCNC(=O)CCCCC1CCNCC1)C(=O)O [Example 13, (2S)-2-butanesulfonylamino-3-(3-(5-(4-piperidyl)pentanoylamino)propanoylamino)propanoic Acid]"
